The results in this text go back to patent publication US6828317B2, “Antimicrobial thiadiazinone derivatives and their application for treatment of bacterial infections” (Pharmacia & Upjohn Company, priority 2002, dated 2004).

≈ marks a conversion by molar mass, not a printed value. Where only a bound is given, the exact number is not on record here.

One series concerns S. aureus UC9213. The series is described as follows: MIC by agar dilution, S. aureus UC9213. Format: cell-based. As to conditions: Staphylococcus aureus, Mueller Hinton agar, overnight at 35° C. An excerpt: (§1) The in vitro activity of compounds of the subject invention may be assessed by standard testing procedures such as the determination of minimum inhibitory concentration (MIC) by agar dilution as described in “Approved Standard. Methods for Dilution Antimicrobial Susceptibility Tests for Bacteria that Grow Aerobically,” 3rd ed., published 1993 by the National Committee for Clinical Laboratory standards, Villanova, Pa., USA. The in vitro MICs of test compounds may be determined by a standard agar dilution method. A stock drug solution of each analog is prepared in a preferred solvent, usually DMSO:H2O (1:3). Serial 2-fold dilutions of each sample are made using 1.0 ml aliquots of sterile distilled water. To each 1.0 ml aliquot of drug is added 9 ml of molten Mueller Hinton agar medium. The drug-supplemented agar is mixed, poured into 15×100 mm petri dishes, and allowed to solidify and dry prior to inoculation. Vials of each of the test microorganisms are maintained frozen in the vapor phase of a liquid nitrogen freezer. Test cultures are grown overnight at 35° C. on the medium appropriate for the microorganism. Colonies are harvested with a sterile swab, and cell suspensions are prepared in Trypticase Soy broth (TSB) to equal the turbidity of a 0.5 McFarland standard. A 1:20 dilution of each suspension is made in TSB. The plates containing the drug supplemented agar are inoculated with a 0.001 ml drop of the cell suspension using a Steers replicator, yielding approximately 10^4 to 10^5 cells per spot. The plates are incubated overnight at 35° C. Following incubation the Minimum Inhibitory Concentration (MIC μg/ml), the lowest concentration of drug that inhibits visible growth of the microorganism, is read and recorded.

In a further series the test system is H. influenzae 30063. The series is described as follows: MIC by agar dilution, H. influenzae 30063. Format: cell-based. Particulars: Haemophilus influenzae, Mueller Hinton agar, overnight at 35° C.
Excerpt: as §1

The next series concerns S. pneumoniae UC9912. The series is described as follows: MIC by agar dilution, S. pneumoniae UC9912. In kind it is cell-based. Particulars: Streptococcus pneumoniae, Mueller Hinton agar, overnight at 35° C.
Excerpt: as §1

With `CC(=O)NC[C@H]1CN(c2ccc(C3=NNC(=O)CS3)c(F)c2)C(=O)O1` [Example 1, N-{3-[3-Fluoro-4-(5-oxo-5,6-dihydro-4H-[1,3,4]thiadiazin-2-yl)-phenyl]-2-oxo-oxazolidin-5(S)-ylmethyl}-acetamide], the melting point was 206 to 209 °C. Also, the MIC against S. aureus UC9213 turned out to be 0.5 µg/mL (≈ 1.36 µM). This compound also came in with an MIC against H. influenzae 30063 of 1 µg/mL (≈ 2.73 µM). Further, in the series on S. pneumoniae UC9912, the MIC is less than 0.06 µg/mL.
Regarding `CC(=O)NC[C@H]1CN(c2ccc(C3=NNC(=O)[C@H](C)S3)c(F)c2)C(=O)O1` [Example 2, N-{3-[3-Fluoro-4-(6(S)-methyl-5-oxo-5,6-dihydro-4H-[1,3,4]thiadiazin-2-yl)-phenyl]-2-oxo-oxazolidin-5(S)-ylmethyl}-acetamide], the melting point lay in the range of 200 to 202 °C. In the series on S. aureus UC9213, the MIC turned out to be 1 µg/mL (≈ 2.63 µM). In the series with H. influenzae 30063, this compound registered an MIC of 4 µg/mL (≈ 10.5 µM). Besides, the MIC against S. pneumoniae UC9912 stood at 0.25 µg/mL (≈ 0.657 µM).
`CC(=O)NC[C@H]1CN(c2ccc(C3=NNC(=O)[C@@H](C)S3)c(F)c2)C(=O)O1` [Example 3, N-{3-[3-Fluoro-4-(6(R)-methyl-5-oxo-5,6-dihydro-4H-[1,3,4]thiadiazin-2-yl)-phenyl]-2-oxo-oxazolidin-5(S)-ylmethyl}-acetamide] returned a melting point of 205 to 206 °C. The compound also showed an MIC with S. aureus UC9213 of 1 µg/mL (≈ 2.63 µM). In the series with H. influenzae 30063, the MIC amounted to 4 µg/mL (≈ 10.5 µM). Moreover, the MIC against S. pneumoniae UC9912 is 0.25 µg/mL (≈ 0.657 µM).
For `CC(=O)NC[C@H]1CN(c2ccc(C3=NNC(=O)C(C)(C)S3)c(F)c2)C(=O)O1` [Example 4, N-{3-[4-(6,6-Dimethyl-5-oxo-5,6-dihydro-4H-[1,3,4]thiadiazin-2-yl)-3-fluorophenyl]-2-oxo-oxazolidin-5(S)-ylmethyl}-acetamide] the same measures were 179 to 181 °C, 2 µg/mL (≈ 5.07 µM), 16 µg/mL (≈ 40.6 µM) and 0.25 µg/mL (≈ 0.634 µM).
Regarding `CC(=O)NC[C@H]1CN(c2ccc(C3=NNC(=O)C(C(C)C)S3)c(F)c2)C(=O)O1` (stereo partly drawn) [Example 7, N-{3-[3-Fluoro-4-(6-isopropyl-5-oxo-5,6-dihydro-4H-[1,3,4]thiadiazin-2-yl)-phenyl]-2-oxo-oxazolidin-5(S)-ylmethyl}-acetamide], the melting point was in the range of 201 to 203 °C.
The same measure, in the same setting: for `CC(=O)NC[C@H]1CN(c2ccc(C3=NNC(=O)C(F)S3)c(F)c2)C(=O)O1` (stereo partly drawn) [Example 10, N-{3-[3-Fluoro-4-(6-fluoro-5-oxo-5,6-dihydro-4H-[1,3,4]thiadiazin-2-yl)-phenyl]-2-oxo-oxazolidin-5(S)-ylmethyl}-acetamide] the value was 218 to 220 °C.
Turning to `COC(=O)NC[C@H]1CN(c2ccc(C3=NNC(=O)CS3)c(F)c2)C(=O)O1` [Example 19], the MIC is 1 µg/mL (≈ 2.62 µM) against S. aureus UC9213, 4 µg/mL (≈ 10.5 µM) in the series on H. influenzae 30063 and 0.125 µg/mL (≈ 0.327 µM) against S. pneumoniae UC9912.
For `CO/N=C/c1ccc(/C=C/C(=O)NC[C@H]2CN(c3ccc(C4=NNC(=O)CS4)c(F)c3)C(=O)O2)cc1` [Example 24, N-{3-[3-Fluoro-4-(5-oxo-5,6-dihydro-4H-[1,3,4]thiadiazin-2-yl)-phenyl]-2-oxo-oxazolidin-5(S)-ylmethyl}-3-[4-(methoxyimino-methyl)-phenyl]-acrylamide] the same measures were 1 µg/mL (≈ 1.95 µM), more than 64 µg/mL and 0.06 µg/mL (≈ 0.117 µM).
In turn, `CC(C)(C)OC(=O)NC[C@H]1CN(c2ccc(C3=NNC(=S)CS3)c(F)c2)C(=O)O1` [Example 28, N-{3-[3-Fluoro-4-(5-thioxo-5,6-dihydro-4H-[1,3,4]thiadiazin-2-yl)-phenyl]-2-oxo-oxazolidin-5(S)-ylmethyl}-carbamic acid tert-butyl ester] returned a melting point of 134 to 136 °C.
The same measure, in the same setting: the result for `CC(=O)NC[C@H]1CN(c2ccc(C3=NNC(=O)C(OC(C)=O)S3)c(F)c2)C(=O)O1` (stereo partly drawn) [Example 31, Acetic acid 2-{4-[5(S)-(acetylaminomethyl)-2-oxo-oxazolidin-3-yl]-2-fluorophenyl}-5-oxo-5,6-dihydro-4H-[1,3,4]thiadiazin-6-yl ester] reads 174 to 177 °C; that for `COC(=O)CN1N=C(c2ccc(N3C[C@H](CNC(C)=O)OC3=O)cc2F)SCC1=O` [Example 33], 157 to 158 °C.
